Assay results taken from patent US10934297B2, “5-heteroaryl substituted indazole-3-carboxamides and preparation and use thereof” (Samumed, LLC, priority 2018, dated 2021).

Key:
IL-6 = IL-6 inhibition in LPS-stimulated human peripheral blood mononuclear cells (HTRF); assay type: cell-based; details: Homo sapiens, PBMC; for EC50: huPBMCs, LPS 50 ng/mL, 22 hours, IL-6 HTRF; for inhibition at 10 µM: read-out: percent inhibition at 10 μM
Protocol: Fresh Normal PB MNC (Catalog #PB001, AllCells, Alameda, Calif.) were shipped overnight at 4° C. and resuspended in Roswell Park Memorial Institute (RPMI) 1640 Medium, with GlutaMAX Supplement (Catalog #61870127, ThermoFisher Scientific, Waltham, Mass.) supplemented with 1% Penicillin-Streptomycin (Catalog #15140163. ThermoFisher Scientific, Waltham, Mass.) and 1% fetal bovine serum (FBS) (Catalog #16140089, ThermoFisher Scientific, Waltham, Mass.) assay media. Fresh normal human peripheral blood mononuclear cells (huPBMCs) were resuspended in 1% FBS-RPMI assay media with 1% Penicillin-Streptomycin 1% to a cell concentration of 1×10e6 cells/mL. […] 50 ng/mL of Lipopolysaccharides from Escherichia coli 0111:B4 (Catalog #L5293-2ML, Sigma-Aldrich, St. Louis, Mo.) was added after 2 hours and cells were incubated for another 22 hours at 37° C.-5% CO2. After 22 hour incubation, a mixture of anti-IL6 XL665 and anti-IL-6 Cryptate diluted in reconstitution buffer (Catalog #62IL6PEC, Cisbio Inc., Bedford, Mass.) was added to each well. Following incubation for 3 hours at room temperature, Homogeneous Time-Resolved Fluorescence (HTRF) was measured using the Envision (Perkin Elmer, Shelton, Conn.) at 665 nm and […]. The ratio of fluorescence at 665 nm to 620 nm was used as a readout for IL-6 quantification. All samples were processed in duplicate. Readings were normalized to DMSO treated cells and normalized activities were utilized for EC50 calculations.

[1] = test system: SW480 colon carcinoma cells; assay: Cell viability assay (CellTiter-Glo) in SW480 colon carcinoma cells; assay type: cell-based, human; details: Homo sapiens, 96 h, four days
Protocol: Representative compounds were screened using the assay procedure to assess the effect on cell viability as described below.
SW480 colon carcinoma cells were transduced with a lentiviral vector expressing luciferase with a human Sp5 promoter consisting of a sequence of eight TCF/LEF binding sites. SW480 cells stably expressing the Sp5-Luc reporter gene and a hygromycin resistance gene were selected by treatment with 150 μg/mL of hygromycin for 7 days. These stably transduced SW480 cells were expanded in cell culture and used for all further screening activities.
For the Cell Viability Assays, the cells were plated at 2,000 cells/well in 384-well plates with a DMEM medium containing 1% fetal bovine serum, and 1% Penicillin-Streptomycin and incubated for […] at 37° C. and 5% CO2. Eight replicates of DMSO-treated cells served as controls and cells treated with compound were performed in duplicate.
After incubation, 10 μL of CellTiter-Glo (Promega) was added to each well allowed to incubate for approximately 12 minutes. This reagent “results in cell lysis and generation of a luminescent signal proportional to the amount of ATP present. The amount of ATP is directly proportional to the number of cells present in culture, in agreement with previous reports. The CellTiter-Glo® Assay generates a “glow-type” luminescent signal, produced by the luciferase reaction (Promega.com)”.

[2] = test system: Wnt activity (Sp5-Luc reporter in SW480 cells); assay: Screening assay for Wnt activity: Sp5-Luc reporter gene assay in SW480 colon carcinoma cells; assay type: cell-based, human; details: Homo sapiens, 36 to 48 hours
Text: The screening assay for Wnt activity is described as follows. Reporter cell lines can be generated by stably transducing cancer cell lines (e.g., colon cancer) or primary cells (e.g., IEC-6 intestinal cells) with a lentiviral construct that includes a Wnt-responsive promoter driving expression of the firefly luciferase gene.
SW480 colon carcinoma cells were transduced with a lentiviral vector expressing luciferase with a human Sp5 promoter consisting of a sequence of eight TCF/LEF binding sites. SW480 cells stably expressing the Sp5-Luc reporter gene and a hygromycin resistance gene were selected by treatment with 150 μg/mL of hygromycin for 7 days. These stably transduced SW480 cells were expanded in cell culture and used for all further screening activities. […] For Sp5-Luc reporter gene assays, the cells were plated at 4,000 cells/well in 384-well plates with a DMEM medium containing 1% fetal bovine serum, and 1% Penicillin-Streptomycin and incubated for 36 to 48 hours at 37° C. and 5% CO2. Following incubation, 15 μl of BriteLite Plus luminescence reagent (Perkin Elmer) was added to each well of the 384-well assay plates. The plates were placed on an orbital shaker for 2 min and then luminescence was quantified using the Envision (Perkin Elmer) plate reader. Readings were normalized to DMSO only treated cells, and normalized activities were utilized for EC50 calculations using the dose-response log (inhibitor) vs. response-variable slope (four parameters) nonlinear regression feature available in GraphPad Prism 5.0 (or Dotmatics).

DYRK1A kinase = DYRK1A kinase (Homo sapiens (Human), UniProt Q13627); assay: DYRK1A kinase assay (Ser/Thr 18 peptide Z-lyte FRET); assay type: biochemical; details: read-out: EC50 (method: IC50)
Protocol: Representative compounds were screened using the assay procedure for DYRK1A kinase activity as described below.
This is a non-radioactive assay using fluorescence resonance energy transfer (FRET) between coumarin and fluorescein to detect kinase activity which is represented as a ratio of coumarin emission/fluorescein emission.
The mixture was allowed to incubate with the representative compounds for one hour at room temperature. All reactions were performed in duplicate. Unphosphorylated (“0% Control”) and phosphorylated (“100% control”) forms of Ser/Thr 18 served as control reactions. Additionally, an 11-point dose-response curve of Staurosporine (1 uM top) was run to serve as a positive compound control.
After incubation, Development Reagent A was diluted in Development Buffer then added to the reaction and allowed to further incubate for one hour at room temperature.

[3] = test system: primary human fibroblasts derived from IPF patients (LL29 cells); assay: Inhibition of the fibrotic process: αSMA staining in TGF-β1 treated LL29 fibroblasts; assay type: cell-based; details: Homo sapiens, Fibroblast, 96 h; LL29 cells, TGF-β1 20 ng/mL, 4 days, % αSMA positive cells
Protocol: Representative compounds were screened using primary human fibroblasts (derived from IPF patients) treated with TGF-β1 to determine their ability to inhibit the fibrotic process.
LL29 cells were plated at 1,500 cells/well in 70 μL/well F12 medium supplemented with 1% Fetal Bovine Serum. […] Wells treated with TGF-β1 and containing DMSO were used as positive control, and cells with only DMSO were negative control. […] Following incubation for 4 days, SYTOX green nucleic acid stain (Life Technologies [Thermo Fisher Scientific]) was added to the wells at a final concentration of 1 μM and incubated at room temperature for 30 min.

GSK3β kinase = GSK3β kinase (Homo sapiens (Human), UniProt P49841); assay: GSK3β kinase assay (Ser/Thr 09 peptide Z-lyte FRET); assay type: biochemical; details: read-out: EC50 (method: IC50)
GSK3β kinase, sequence (P49841 whole entry): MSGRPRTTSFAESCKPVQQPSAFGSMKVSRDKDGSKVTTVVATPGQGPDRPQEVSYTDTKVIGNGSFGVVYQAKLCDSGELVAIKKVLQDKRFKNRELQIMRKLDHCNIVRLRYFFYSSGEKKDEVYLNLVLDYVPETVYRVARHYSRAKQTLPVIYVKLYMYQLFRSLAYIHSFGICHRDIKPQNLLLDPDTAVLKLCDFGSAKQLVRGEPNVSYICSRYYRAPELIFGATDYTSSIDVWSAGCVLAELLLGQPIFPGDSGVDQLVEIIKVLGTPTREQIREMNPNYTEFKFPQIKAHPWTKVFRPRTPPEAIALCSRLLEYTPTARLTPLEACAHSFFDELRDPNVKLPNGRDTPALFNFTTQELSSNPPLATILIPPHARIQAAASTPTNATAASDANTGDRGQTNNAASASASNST
Protocol: Representative compounds were screened using the assay procedure for GSK3β kinase activity as described below.
This is a non-radioactive assay using fluorescence resonance energy transfer (FRET) between coumarin and fluorescein to detect kinase activity which is represented as ratio of coumarin emission/fluorescein emission.
The mixture is allowed to incubate with the representative compounds for one hour at room temperature. All reactions were performed in duplicate. Unphosphorylated (“0% Control”) and phosphorylated (“100% control”) forms of Ser/Thr 18 serve as control reactions.
After incubation, diluted Development Buffer is added to the reaction and allowed to further incubate for one hour at room temperature.
Dose-response curves are generated and inhibitory concentration (IC50) values are calculated using non-linear regression curve fit in the Dotmatics' Studies Software (Bishops Stortford, UK).

SMILES	EC50 (IL-6) [µM]	EC50 [1] [µM]	EC50 [2] [nM]	IC50 (DYRK1A kinase) [nM]	EC50 [3] [nM]	IC50 (GSK3β kinase) [nM]	inhibition at 10 µM (IL-6) [%]
O=C(Nc1ccc(OC(F)F)cc1)c1n[nH]c2ccc(-c3cnn(C4CCN(CCF)CC4)c3)cc12 [Compound 60, N-(4-(Difluoromethoxy)phenyl)-5-(1-(1-(2-fluoroethyl)piperidin-4-yl)-1H-pyrazol-4-yl)-1H-indazole-3-carboxamide]	8.98	3.73	3850	1500	1280	> 10000	
O=C(Nc1ccc(F)cc1)c1n[nH]c2ccc(-c3cnn(C4CCNCC4)c3)cc12 [Compound 48, N-(4-Fluorophenyl)-5-(1-(piperidin-4-yl)-1H-pyrazol-4-yl)-1H-indazole-3-carboxamide]	5.42	0.354	239	23	449	260	
O=C(Nc1ccc(OC(F)F)cc1)c1n[nH]c2cc(F)c(-c3cnn(C4CCNCC4)c3)cc12 [Compound 56, N-(4-(Difluoromethoxy)phenyl)-6-fluoro-5-(1-(piperidin-4-yl)-1H-pyrazol-4-yl)-1H-indazole-3-carboxamide]	2.15	0.201	376	27	1530	330	
Cc1nn(C)cc1-c1ccc2[nH]nc(C(=O)NC3CCC(F)(F)CC3)c2c1 [Compound 21, N-(4,4-Difluorocyclohexyl)-5-(1,3-dimethyl-1H-pyrazol-4-yl)-1H-indazole-3-carboxamide]	> 10	> 10	> 10000	1820	294	903	15.5
CC(C)CNC(=O)c1n[nH]c2ccc(-c3cnn(C)c3)cc12 [Compound 2, N-Isobutyl-5-(1-methyl-1H-pyrazol-4-yl)-1H-indazole-3-carboxamide]	3.01	5.98	819	25	75	11	
Cn1cc(-c2cc3c(C(=O)Nc4ccc5c(c4)CNC5)n[nH]c3cc2F)cn1 [Compound 84, 6-Fluoro-N-(isoindolin-5-yl)-5-(1-methyl-1H-pyrazol-4-yl)-1H-indazole-3-carboxamide]	> 10	0.3	1340	2	1690	21	2.1
Cn1cc(-c2ccc3[nH]nc(C(=O)NCCC(F)(F)F)c3c2)cn1 [Compound 5, 5-(1-Methyl-1H-pyrazol-4-yl)-N-(3,3,3-trifluoropropyl)-1H-indazole-3-carboxamide]	2.94	2.52	655	25	151	8	
O=C(Nc1ccc(F)cc1)c1n[nH]c2ccc(-c3cnn(C4CC4)c3)cc12 [Compound 46, 5-(1-Cyclopropyl-1H-pyrazol-4-yl)-N-(4-fluorophenyl)-1H-indazole-3-carboxamide]	> 10	4.5	1460	4450	543	704	48.3
O=C(Nc1ccc(N2CCCC2)nc1)c1n[nH]c2cc(F)c(-c3cnn(C4CC4)c3)cc12 [Compound 92, 5-(1-Cyclopropyl-1H-pyrazol-4-yl)-6-fluoro-N-(6-(pyrrolidin-1-yl)pyridin-3-yl)-1H-indazole-3-carboxamide]	> 10	> 10	2310	39	313	699	0
O=C(Nc1ccc(OC(F)F)cc1)c1n[nH]c2ccc(-c3cnn(CC4CCNCC4)c3)cc12 [Compound 63, N-(4-(Difluoromethoxy)phenyl)-5-(1-(piperidin-4-ylmethyl)-1H-pyrazol-4-yl)-1H-indazole-3-carboxamide]	> 10	0.768	9440	767	2030	2320	6.2
Cc1c(-c2ccc3[nH]nc(C(=O)NC4CCC(F)(F)CC4)c3c2)cnn1C [Compound 20, N-(4,4-Difluorocyclohexyl)-5-(1,5-dimethyl-1H-pyrazol-4-yl)-1H-indazole-3-carboxamide]	> 10	> 10	> 10000	13	3410	21	36.4
Cc1noc(C)c1-c1ccc2[nH]nc(C(=O)NC3CCN(CC(C)(C)F)CC3)c2c1 [Compound 43, 5-(3,5-Dimethylisoxazol-4-yl)-N-(1-(2-fluoro-2-methylpropyl)piperidin-4-yl)-1H-indazole-3-carboxamide]	9.15	> 10	> 10000	67	2170	1060	
CN1CC2(CCC(NC(=O)c3n[nH]c4ccc(-c5cnn(C)c5)cc34)CC2)C1 [Compound 45, 5-(1-Methyl-1H-pyrazol-4-yl)-N-(2-methyl-2-azaspiro [3.5]nonan-7-yl)-1H-indazole-3-carboxamide]	1.27	4.77	1650	6	355	31	
